Laboratory results: the supplement of paper PMC10307832

What was measured:
Test in all cases: relative viability (nuclei count vs DMSO), 5 days (fraction); higher = more cells survive
[1] = compound: CCC1=CN=CN=C1N2CCN(CC2)CC3=NC4=C(N3)C=C(C=C4)C(F)(F)F + Cc1nc(NC(=O)N2CCC[C@H]2C(N)=O)sc1-c1ccnc(C(C)(C)C(F)(F)F)c1 [Alpelisib] (partner 2 µM)
In short: (§1)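 Dosing by pin tool came one day after lung cancer cell lines were seeded in 1536-well plates, using either one drug or a fixed anchor-drug dose plus five library-drug doses (not always all listed) in √10 steps. After 5 days, nuclei were counted on 4× images. Relative viability is treated-well nuclei count divided by vehicle-well nuclei count, and values are medians of duplicate plates.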

[2] = compound: CCn1c(-c2nonc2N)nc2cnc(Oc3cccc(NC(=O)c4ccc(OCCN5CCOCC5)cc4)c3)cc21 + Nc1ncn([C@H]2C[C@H](O)[C@@H](CO)O2)c(=O)n1 [Decitabine] (partner 2 µM)
In short: as §1

Mirin + Pictilisib = compound: N=C1NC(=O)/C(=C/c2ccc(O)cc2)S1 [Mirin] + CS(=O)(=O)N1CCN(Cc2cc3nc(-c4cccc5[nH]ncc45)nc(N4CCOCC4)c3s2)CC1 [Pictilisib] (partner 1 µM)
In short: as §1

Mirin + Phenformin = compound: N=C1NC(=O)/C(=C/c2ccc(O)cc2)S1 [Mirin] + N=C(N)NC(=N)NCCc1ccccc1 [Phenformin] (partner 250 µM)
In short: as §1

| Cell Line | relative viability ([1]; first compound 0.04 µM) | relative viability ([1]; first compound 0.1265 µM) | relative viability ([1]; first compound 0.4 µM) | relative viability ([1]; first compound 1.265 µM) | relative viability ([1]; first compound 4 µM) | relative viability ([2]; first compound 0.04 µM) | relative viability ([2]; first compound 0.1265 µM) | relative viability ([2]; first compound 0.4 µM) | relative viability ([2]; first compound 1.265 µM) | relative viability ([2]; first compound 4 µM) | relative viability (Mirin + Pictilisib; first compound 0.25 µM) | relative viability (Mirin + Pictilisib; first compound 2.5 µM) | relative viability (Mirin + Pictilisib; first compound 7.906 µM) | relative viability (Mirin + Pictilisib; first compound 25 µM) | relative viability (Mirin + Phenformin; first compound 0.25 µM) | relative viability (Mirin + Phenformin; first compound 2.5 µM) | relative viability (Mirin + Phenformin; first compound 7.906 µM) | relative viability (Mirin + Phenformin; first compound 25 µM) | relative viability (Mirin + Pictilisib; first compound 0.7906 µM) | relative viability (Mirin + Phenformin; first compound 0.7906 µM) |
| --- | --- | --- | --- | --- | --- | --- | --- | --- | --- | --- | --- | --- | --- | --- | --- | --- | --- | --- | --- | --- |
| NCI-H23 | 0.807 | 0.652 | 0.706 | 0.599 | 0.781 | 0.362 | 0.342 | 0.334 | 0.234 | 0.263 | 0.483 | 0.385 | 0.367 | 0.373 | 0.817 | 0.747 | 0.753 | 0.862 |  |  |
| LU99A | 0.524 | 0.527 | 0.53 | 0.568 | 0.585 | 1.03 | 0.994 | 0.929 | 1.02 | 0.844 | 0.282 | 0.295 | 0.283 | 0.271 | 0.839 | 0.882 | 0.762 | 0.766 | 0.302 | 0.687 |
| NCI-H1437 | 1 | 0.93 | 0.831 | 0.795 | 0.855 | 0.489 | 0.61 | 0.547 | 0.499 | 0.426 | 0.525 | 0.487 | 0.272 | 0.165 | 0.31 | 0.318 | 0.3 | 0.309 | 0.436 | 0.333 |
| EKVX | 0.875 | 0.828 | 0.762 | 0.699 | 0.866 | 0.397 | 0.381 | 0.331 | 0.35 | 0.34 | 0.39 | 0.396 | 0.394 | 0.378 | 0.251 | 0.246 | 0.224 | 0.258 | 0.422 | 0.238 |
| ABC-1 | 0.987 | 1 | 1.08 | 0.942 | 0.971 | 1.13 | 1.07 | 1.21 | 0.507 | 0.672 | 0.923 | 0.753 | 0.695 | 0.302 | 0.263 | 0.269 | 0.257 | 0.206 | 0.501 | 0.21 |
| NCI-H596 | 0.573 | 0.431 | 0.443 | 0.459 | 0.508 | 1.01 | 1.04 | 0.969 | 0.926 | 0.932 | 0.447 | 0.43 | 0.361 | 0.345 | 0.709 | 0.704 | 0.787 | 0.736 | 0.391 | 0.713 |
| LCLC-97TM1 | 0.239 | 0.266 | 0.246 | 0.314 | 0.192 | 0.258 | 0.235 |  | 0.232 | 0.258 | 0.184 | 0.193 | 0.136 | 0.149 | 0.445 | 0.439 | 0.36 | 0.53 | 0.128 | 0.515 |
| NCI-H2170 | 0.841 | 0.753 | 0.762 | 0.713 | 0.685 | 0.473 | 0.494 | 0.494 | 0.474 | 0.431 | 0.327 | 0.281 | 0.247 | 0.253 | 0.449 | 0.426 | 0.377 | 0.413 | 0.217 | 0.439 |
| NCI-H1793 | 0.618 | 0.553 | 0.557 |  | 0.637 | 0.36 | 0.474 | 0.499 | 0.457 | 0.369 | 0.387 | 0.236 | 0.311 | 0.482 | 0.447 | 0.362 | 0.287 | 0.374 | 0.327 |  |
| NCI-H322M | 0.741 | 0.892 | 0.749 | 0.705 | 0.748 | 0.585 | 0.63 | 0.824 | 0.767 | 0.648 | 0.5 | 0.492 | 0.567 | 0.583 | 0.792 | 0.777 | 0.963 | 0.628 | 0.419 | 0.623 |
| PC-3 [JPC-3] | 1.06 | 0.94 | 1.02 | 1.04 | 0.96 | 0.803 | 0.764 | 0.764 | 0.655 | 0.725 | 0.678 | 0.731 | 0.702 | 0.706 | 0.462 | 0.513 | 0.513 | 0.522 | 0.73 | 0.48 |
| EPLC-272H | 0.795 | 0.85 | 0.813 | 0.979 | 0.981 | 0.469 | 0.442 | 0.374 | 0.299 | 0.375 | 0.35 | 0.284 | 0.311 | 0.258 | 0.354 | 0.307 | 0.254 | 0.234 |  |  |
| A-427 | 1.08 | 1.08 | 0.99 | 0.986 | 0.791 | 0.542 | 0.517 | 0.475 | 0.278 | 0.291 | 0.749 | 0.821 | 0.603 | 0.783 | 0.311 | 0.363 | 0.266 | 0.348 |  |  |
